The assay concerns NIH3T6.7 and MDA-MB-231 cells. As to the kind of experiment: Cell targeting ability and drug release by fluorescence microscopy. The following applies: 0.05 mM based on doxorubicin, 30 minutes incubation.

Protocol: For each of 12 wells, a cover glass was put on a bottom, 3×10^5 of each of NIH3T6.7 and MDA-MB-231 cells were dispensed on the glass per well to incubate for 12 hours, and washed with PBS three times. After the washing with PBS, 0.05 mM of a Herceptin-binding target-specific stimuli-sensitive nanocomposite based on doxorubicin, an IgG-binding stimuli-sensitive nanocomposite as a control group, and doxorubicin were each added to the cells, and incubated for 30 minutes. After the cells were washed with PBS, a dye for a cell nucleus (Hoechst dye) was added to the cells, reacted for 10 minutes and washed with PBS three times, and then the cover glass was fixed to a slide glass to observe microscope images.

As to `COc1cccc2c1C(=O)c1c(O)c3c(c(O)c1C2=O)C[C@@](O)(C(=O)CO)C[C@@H]3O[C@H]1C[C@H](N)[C@H](O)[C@H](C)O1` [Doxorubicin, doxorubicin], the “doxorubicin identified in cell nucleus (microscope images)” value was “identified from a nucleus of the doxorubicin-treated cell without distinction of cells”.

The values are drawn from US20130183249A1, “Stimulus Sensitive Magnetic Nanocomposite Using Pyrene Polymer, and Contrast Medium Composition Containing the Nanocomposite” (INDUSTRY ACADEMIC COOPERATION FOUNDATION YOUNSEI UNIVERSITY, priority 2010, published 2013).
